Data set [1] can be described thus: NAC depletion percent, HPLC-fluorescence detection. The protocol: (§1) 1) To a 50 mL vessel, 11.6 mg (±0.1 mg) of NAC is weighed; to this, a 25 mL measuring pipet is used to add 20 mL of 100 mmol/L phosphate buffer (pH: 8.0); and the content is gently stirred using a test tube mixer to achieve dissolution (2 mmol/L). 2) To a 500 mL vessel, 149.5 mL of this buffer is added using a 50 mL measuring pipet; to this, 0.5 mL of the above-described 2 mmol/L NAC solution is added; and the content is mixed by inversion to achieve 300-fold dilution (6.667 μmon).
(§2) The test substance undiluted solution is defined as an “undiluted solution”, and used. Incidentally, this “undiluted solution” may be appropriately diluted to, for example, 1/10, 1/100, or 1/1000, using an appropriate solvent, and the resultant solution may be used.
(§3) Subsequently, the solution having the maximum dissolution concentration is defined as an “undiluted solution”, and tested. Incidentally, this “undiluted solution” may be appropriately diluted to, for example, 1/10, 1/100, or 1/1000, using an appropriate solvent, and the resultant solution may be used.
(§4) The test substance is prepared at 1 mmol/L in any of solvents that are water, acetonitrile, acetone, and a 5 mass % dimethyl sulfoxide (DMSO)/acetonitrile solution and used as a test substance solution. As the solvent, a solvent in which the test substance dissolves at 1 mmol/L is used; when the test substance is soluble in a plurality of solvents, the solvent is selected in the following order of decreasing precedence: water, acetonitrile, acetone, and 5 mass % DMSO/acetonitrile.
(§5) Test substance solutions are prepared on a 96-well plate (U96 PP-0.5 ML NATURAL, Thermo Fisher Scientific Inc. (NUNC)) mainly using a 12-channel pipette, and a reagent is added in accordance with the following formula.
(§6) Nucleophilic reagent (NAC and NAL): 150 μL
(§7) Test substance solution: 50 μL
(§8) The plate is tightly sealed using a plate sealing (Resistant embossed seal, SHIMADZU GLC Ltd.), and stirred using a plate shaker (Titramax 100, Heidolph Instruments GmbH & CO. KG). The plate is subjected to spinning down using a centrifuge, and then to incubation at 25° C., for 24 hours, in a light-shielded state.
(§9) After the incubation for 24 hours, the plate sealing is removed; to each sample, 50 µL of the reaction stopping solution is added to stop the reaction.
(§10) The HPLC measurement conditions for the nucleophilic reagents are as follows.
(§11) From the average values (each, n=3) of peak areas of the post-reaction unreacted NAC or NAL and the blank-test (after performing the reaction step without addition of the test substances) NAC or NAL, the following formula is used to calculate the depletion percent of NAC or NAL.
(§12) NAC depletion percent (% depletion)=[1−(Average value of peak areas of post-reaction unreacted NAC/Average value of peak areas of blank-test (after performing the reaction step without addition of the test substances) NAC)]×100
(§13) The average value of peak areas of the post-reaction unreacted NAC is the average value of areas obtained by measuring three times post-reaction unreacted NAC. The average value of peak areas of blank-test (after performing the reaction step without addition of the test substances) NAC is the average value of areas obtained by measuring three times blank-test (after performing the reaction step without addition of the test substances) NAC.
(§14) The reactions were each performed on a 96-well plate, and the number of samples of each case was set to n=3. In addition, as controls, reaction solutions including the solvent alone were prepared. The reaction solutions were prepared so as to have a NAC or NAL concentration of 5 μmon. To the reaction solutions after the lapse of 24 hours, a trifluoroacetic acid (TFA) aqueous solution was added such that the final concentration became 0.5% (v/v) TFA. Subsequently, HPLC was performed for measurements by two detection methods that were light absorption detection using a photodiode array (PDA) detector, and fluorescence detection using a fluorescence detector.

Data set [2] is described as follows: NAL depletion percent, HPLC-fluorescence detection. The protocol:
(§15) 1) To a 50 mL vessel, 12.6 mg (±0.1 mg) of NAL is weighed; to this, a 25 mL measuring pipet is used to add 20 mL of 100 mmol/L phosphate buffer (pH: 10.2); and the content is gently stirred using a test tube mixture to achieve dissolution (2 mmol/L NAL solution). 2) To a 500 mL vessel, 149.5 mL of this buffer is added using a 50 mL measuring pipet; to this, 0.5 mL of the above-described 2 mmol/L NAL solution is added; and the content is mixed by inversion to achieve 300-fold dilution (6.667 μmol/L).
as §2, §3, §4, §5, §6, §7, §8, §9, §10, §11
(§16) NAL depletion percent (% depletion)=[1−(Average value of peak areas of post-reaction unreacted NAL/Average value of peak areas of blank-test (after performing the reaction step without addition of the test substances) NAL)]×100
(§17) The average value of peak areas of post-reaction unreacted NAL is the average value of areas obtained by measuring three times post-reaction unreacted NAL. The average value of peak areas of blank-test (after performing the reaction step without addition of the test substances) NAL is the average value of areas obtained by measuring three times blank-test (after performing the reaction step without addition of the test substances) NAL.
as §14

A short description of data set [3]: Average score of NAC and NAL depletion and prediction of skin allergenicity, fluorescence method. Particulars: for determination of skin allergenicity from average score: criterion […]; for Average score: test substance solution 1 mmol/L. The protocol: (§18) The average value (Average Score) of NAC and NAL depletion percents is calculated. In the resultant value, the second decimal place is rounded off.
(§19) Average value (Average Score) of NAC and NAL depletion percents=(NAC depletion percent+NAL depletion percent)/2
(§20) The depletion percent of at least one of NAC or NAL or the average score of the depletion percents of NAC and NAL is calculated, and whether or not the test substances are “allergenic substances” or “non-allergenic substances” is determined:
(§21) (1) in a case of performing evaluation based on the average value of the depletion percent of NAC and the depletion percent of NAL,
(§22) In the following Tables, S represents as being an allergenic substance and NS represents as being a non-allergenic substance.

The nature of data set [4]: NAC depletion percent, HPLC-UV detection (281 nm). How it is done: as §1, §2, §3, §4, §5, §6, §7, §8, §9, §10, §11, §12, §13, §14
The nature of data set [5]: NAL depletion percent, HPLC-UV detection (281 nm). How it is done:
as §15, §2, §3, §4, §5, §6, §7, §8, §9, §10, §11, §16, §17, §14

A short description of data set [6]: Average score of NAC and NAL depletion and prediction of skin allergenicity, UV method. As to conditions: for Mean Depletion (%) (average score) / determination of skin allergenicity from average score: UV method; for determination of skin allergenicity from average score: criterion […]; for Average score: test substance solution 1 mmol/L. The protocol:
as §18, §19, §20, §21, §22

Setting [7] is: Fluorescence method, non-allergenic substance.
[8] abbreviates: Fluorescence method, skin allergenicity prediction.
[9] abbreviates: Reference (UV method), non-allergenic substance.
The mark [10] stands for this setting: Reference (UV method), skin allergenicity prediction.
The mark [11] stands for this setting: 1/1 (undiluted solution), fluorescence method, 25° C. 24 hours.
[12] abbreviates: 1/10 diluted solution, fluorescence method.
Setting [13] is: 1/1 (undiluted solution), fluorescence method.
[14] abbreviates: 1/1 (undiluted solution), UV method.
The mark [15] stands for this setting: 1/10 diluted solution, UV method.
Setting [16] is: single substance, test substance solution 1 mmol/L, fluorescence method.
The mark [17] stands for this setting: single substance, fluorescence method, criterion average score […].
The mark [18] stands for this setting: single substance, fluorescence method.
The mark [19] stands for this setting: single substance, test substance solution 1 mmol/L, Reference (UV method).
Where [20] appears, read: single substance, Reference (UV method), criterion average score […].
Setting [21] is: single substance, Reference (UV method).

Structures are written as SMILES.

Consider `CC(C)O` [Isopropanol], for which the “NAC depletion (%)” value in data set [1] (setting [7]) turned out to be 1.1%; in data set [4] (setting [9]), 0.1%. Moreover, the results for the “NAL depletion (%)” value in data set [2] (setting [7]) and in data set [5] (setting [9]) were 4.6% and 2.8%, respectively. The Prediction result in data set [3] (setting [8]) and in data set [6] (setting [10]) was “NS (NS represents as being a non-allergenic substance)” in each case.
For the compound `CC[C@H](CC[C@@H](C)[C@H]1CC[C@H]2[C@@H]3CC=C4C[C@@H](O)CC[C@]4(C)[C@H]3CC[C@]12C)C(C)C` [β-sitosterol, β-Sitosterol], the “NAC depletion (%)” value in data set [1] (setting [11]) is 0.0%; in data set [1] (setting [12]), 0.6%; in data set [4] (setting [14]), 0.0%; in data set [4] (setting [15]) it was 3.9%. Besides, the “NAL depletion (%)” value is on record as 0.1% in data set [2] (setting [11]), 0.0% in data set [2] (setting [12]), 0.0% in data set [5] (setting [14]) and 0.0% in data set [5] (setting [15]). In addition, the “Mean Depletion (%) (average score)” value is 0.1% in data set [3] (setting [13]), 0.3% in data set [3] (setting [12]), 0.0% in data set [6] (1/1 (undiluted solution)) and 1.9% in data set [6] (1/10 diluted solution). The “determination of skin allergenicity from average score” value in data set [3] (setting [13]), in data set [3] (setting [12]), in data set [6] (1/1 (undiluted solution)) and in data set [6] (1/10 diluted solution) was “not having skin allergenicity” throughout.
Take `CC(=O)C(=O)CC(C)C` [5-Methyl-2,3-hexanedione]: the “NAC depletion (%)” value in data set [1] (setting [16]) is 14.8%; in data set [4] (setting [19]), 6.4%. Also, the results for the “NAL depletion (%)” value in data set [2] (setting [16]) and in data set [5] (setting [19]) were 26.1% and 34.8%, respectively. For the same compound, the Prediction result in data set [3] (setting [17]) and in data set [6] (setting [20]) was “S (S represents as being an allergenic substance)” throughout. Further, the Average score in data set [3] (setting [18]) is on record as 20.4%; in data set [6] (setting [21]), 20.6%.
Turning to `Nc1ccc(S(=O)(=O)O)cc1` [Sulfanilic acid], the “NAC depletion (%)” value in data set [1] (setting [7]) is listed as 0.0%; in data set [4] (setting [9]) it was 0.5%. Further, the “NAL depletion (%)” value turned out to be 0.1% in data set [2] (setting [7]) and 0.4% in data set [5] (setting [9]). Further, the Prediction result in data set [3] (setting [8]) and in data set [6] (setting [10]) was “NS (NS represents as being a non-allergenic substance)” each time.
For `O=C(O)c1ccc(O)c(O)c1` [Protocatechuic acid], the “NAC depletion (%)” value in data set [1] (setting [11]) was 58.1%; in data set [1] (setting [12]), 27.3%; in data set [4] (setting [14]), 60.8%; in data set [4] (setting [15]), 30.1%. The “NAL depletion (%)” value in data set [2] (setting [11]) stood at 38.3%; in data set [2] (setting [12]), 11.5%; in data set [5] (setting [14]), 18.6%; in data set [5] (setting [15]), 11.9%. The “Mean Depletion (%) (average score)” value in data set [3] (setting [13]) is 48.2%; in data set [3] (setting [12]) it was 19.4%; in data set [6] (1/1 (undiluted solution)), 39.7%; in data set [6] (1/10 diluted solution) it was 21.0%. In addition, the “determination of skin allergenicity from average score” value in data set [3] (setting [13]), in data set [3] (setting [12]), in data set [6] (1/1 (undiluted solution)) and in data set [6] (1/10 diluted solution) was “having skin allergenicity” throughout.
Consider `O=C(O)c1ccccc1O` [Salicylic acid], for which the “NAC depletion (%)” value in data set [1] (setting [7]) is 0.1%; in data set [4] (setting [9]), 0.0%. Besides, the “NAL depletion (%)” value in data set [2] (setting [7]) was found to be 4.3%; in data set [5] (setting [9]), 0.4%. The Prediction result in data set [3] (setting [8]) and in data set [6] (setting [10]) was “NS (NS represents as being a non-allergenic substance)” each time.
Turning to `CCCCCC` [Hexane], the results for the “NAC depletion (%)” value in data set [1] and in data set [4] were 0.0% and 0.2%, respectively. In addition, the “NAL depletion (%)” value amounted to 0.0% in data set [2] and 0.9% in data set [5]. The Prediction result in data set [3] (setting [8]) and in data set [6] (setting [10]) was “NS (NS represents as being a non-allergenic substance)” in each case.
With `O=[N+]([O-])c1ccc(Cl)c([N+](=O)[O-])c1` [2,4-Dinitrochlorobenzene], the “NAC depletion (%)” value in data set [1] (setting [16]) was 91.6%; in data set [4] (setting [19]), 89.3%. The “NAL depletion (%)” value in data set [2] (setting [16]) turned out to be 0.0%; in data set [5] (setting [19]) it was 6.1%. In addition, the Prediction result in data set [3] (setting [17]) and in data set [6] (setting [20]) was “S (S represents as being an allergenic substance)” each time. Further, the Average score in data set [3] (setting [18]) was 45.8%; in data set [6] (setting [21]), 47.7%.
For `CC(C=O)Cc1ccc(C(C)(C)C)cc1` (centres unmarked) [Lilial], the figures for the “NAC depletion (%)” value in data set [1] (setting [16]) and in data set [4] (setting [19]) were 18.0% and 7.0%, respectively. The “NAL depletion (%)” value is on record as 0.2% in data set [2] (setting [16]) and 3.9% in data set [5] (setting [19]). Further, the Prediction result in data set [3] and in data set [6] was “S (key: S represents as being an allergenic substance; NS represents as being a non-allergenic substance)” throughout. In addition, the Average score was 9.1% in data set [3] (setting [18]) and 5.4% in data set [6] (setting [21]).

These data come from US20210181109A1 (FUJIFILM Corporation, priority 2018, published 2021).
